Experimental data reported in US20260217660A1, “INHIBITORS OF ACTIVIN RECEPTOR TYPE I (ACVRI) AND ACTIVIN RECEPTOR LIKE TYPE I (ACVRLI), AND METHODS USING SAME” (Baylor College of Medicine, priority 2023, published 2026).
Numbering of substitutions follows the chain as printed. Values joined by “and” are separate entries in the source; they are usually repeats but may differ in a detail not shown here. Equal entries are not always repeated.

How the values were obtained:
[1] = test system: BMP2-induced luciferase activity in 293T-BRE-reporter cells; assay: BMP2-induced luciferase reporter activity in 293T-BRE reporter cells; assay type: cell-based; settings: 30 min pre-treatment, 5 ng/ml BMP2, 6 hours
Procedure: BMP2-dependent luciferase reporter activation was quantified after 6 hours using the Promega BrightGLO luciferase system on a Tecan Infinity M1000 Pro plate reader.
FIG. 10 provides a bar graph depicting inhibition of BMP2-induced luciferase activity in 293T-BRE-reporter cells. Approximately 20,000 cells per well were plated in a 96-well plate and allowed to attach overnight. […] Cells were then stimulated with vehicle or 5 ng/ml BMP2 for 6 hours. Luciferase transactivation was assessed using the Promega BrightGLO luciferase system (Promega) and the signal was quantified using a plate reader (M1000 Pro).

ACVR1^WT = target: T1, ACVR1^WT (Homo sapiens, UniProt Q04771); assay: Promega NanoBRET live-cell target engagement, ACVR1; assay type: cell-based; settings: in cellulo; NI = No inhibition at 40 μM
T1 sequence (Q04771 21-509): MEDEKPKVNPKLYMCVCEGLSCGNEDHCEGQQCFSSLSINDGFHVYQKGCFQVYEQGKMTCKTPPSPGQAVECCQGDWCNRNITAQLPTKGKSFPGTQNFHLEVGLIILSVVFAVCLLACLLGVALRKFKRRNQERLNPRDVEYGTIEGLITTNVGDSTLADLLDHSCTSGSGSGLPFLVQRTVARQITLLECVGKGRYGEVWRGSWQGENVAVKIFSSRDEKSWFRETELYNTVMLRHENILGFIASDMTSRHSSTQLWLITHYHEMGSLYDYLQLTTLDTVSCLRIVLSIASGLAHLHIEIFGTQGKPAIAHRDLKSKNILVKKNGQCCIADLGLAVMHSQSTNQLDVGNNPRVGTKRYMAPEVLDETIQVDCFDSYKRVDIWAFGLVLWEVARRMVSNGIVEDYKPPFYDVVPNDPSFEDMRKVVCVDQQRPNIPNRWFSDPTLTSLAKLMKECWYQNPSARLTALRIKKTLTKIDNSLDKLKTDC
Description: (§1) The Promega NanoBRET target engagement system involves cell-based competitive displacement of a fluorescent NanoBRET tracer bound reversibly to a NanoLuc fusion protein. Test compounds displace the tracer dependent on their affinity for the target and reduce […] the NanoBRET signal. […]

[2] = Metabolic stability in human liver microsomes; assay type: in vitro ADME; settings: some cells add hours in brackets
Description: (§2) Exemplary compounds of the present disclosure have been evaluated for metabolic stability in mouse and human liver microsomes.

BMPR1B = target: T2, BMPR1B (Homo sapiens, UniProt O00238); assay: ThermoFisher Lantha kinase screen, BMPR1B; assay type: biochemical; settings: in vitro
T2 construct: purchased ThermoFisher
T2 sequence (O00238 14-502): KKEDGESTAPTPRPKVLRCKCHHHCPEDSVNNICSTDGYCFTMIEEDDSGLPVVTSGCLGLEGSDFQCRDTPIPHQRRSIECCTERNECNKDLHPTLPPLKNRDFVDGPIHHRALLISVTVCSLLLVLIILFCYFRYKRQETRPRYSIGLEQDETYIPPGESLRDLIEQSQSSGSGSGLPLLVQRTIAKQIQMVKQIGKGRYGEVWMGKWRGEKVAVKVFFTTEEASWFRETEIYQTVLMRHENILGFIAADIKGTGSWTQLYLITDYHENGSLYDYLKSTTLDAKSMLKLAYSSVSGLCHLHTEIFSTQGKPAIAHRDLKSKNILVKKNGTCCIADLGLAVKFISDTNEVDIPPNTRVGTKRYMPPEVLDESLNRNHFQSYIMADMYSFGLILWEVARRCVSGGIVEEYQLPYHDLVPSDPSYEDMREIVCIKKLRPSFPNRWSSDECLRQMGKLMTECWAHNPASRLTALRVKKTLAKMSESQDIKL
Description: (§3) FIGS. 3A-3B depict a representation of KINOMEscan (Eurofins) binding data of CDD-2342 across the human kinome phylogenetic tree (FIG. 3A) and ThermoFisher Lantha kinase screen (FIG. 3B). FIG. 3A: The size of the circles (indicated with lines) are correlated with the affinity of ligand binding (i.e., larger circle, greater binding affinity). […] FIG. 3B: Using the ThermoFisher Lantha kinase screening assay, kinase specificity for ACVR1>ACVRL1>>BMPR1A>BMPR1B was observed.
(§4) Additionally, CDD-2342 is a >1000-fold better inhibitor of ACVR1 than non-TGFβ family kinases (FIGS. 3A-3B).

BMPR1A = target: T3, BMPR1A (Homo sapiens, UniProt P36894); assay: ThermoFisher Lantha kinase screen, BMPR1A; assay type: biochemical; settings: in vitro
T3 construct: purchased ThermoFisher
T3 sequence (P36894 24-532): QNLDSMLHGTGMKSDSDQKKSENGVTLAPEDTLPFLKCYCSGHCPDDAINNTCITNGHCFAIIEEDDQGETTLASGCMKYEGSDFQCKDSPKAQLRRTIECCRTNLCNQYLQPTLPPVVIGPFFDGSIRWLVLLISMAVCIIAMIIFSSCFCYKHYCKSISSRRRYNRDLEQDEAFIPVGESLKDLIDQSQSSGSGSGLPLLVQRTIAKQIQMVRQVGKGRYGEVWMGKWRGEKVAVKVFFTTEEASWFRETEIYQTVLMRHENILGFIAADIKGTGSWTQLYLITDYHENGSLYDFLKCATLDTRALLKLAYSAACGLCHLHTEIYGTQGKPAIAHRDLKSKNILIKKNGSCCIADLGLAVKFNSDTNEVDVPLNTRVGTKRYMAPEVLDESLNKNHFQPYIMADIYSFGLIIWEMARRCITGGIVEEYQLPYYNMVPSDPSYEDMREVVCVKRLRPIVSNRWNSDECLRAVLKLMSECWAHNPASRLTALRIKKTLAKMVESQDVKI
Description: as §3, §4

ACVR1^R206H = target: T4, ACVR1^R206H (Homo sapiens, UniProt Q04771, R206H); assay: Promega NanoBRET live-cell target engagement, ACVR1 (R206H); assay type: cell-based; settings: in cellulo; NI = No inhibition at 40 μM
T4 sequence (Q04771 21-509 R206H): T1 sequence (Q04771 21-509) with R186H
Description: as §1

ACVR1 = target: T5, ACVR1 (Homo sapiens, UniProt Q04771); assay: ThermoFisher (Lantha) kinase assay, inhibition of ACVR1; assay type: biochemical
T5 construct: purchased ThermoFisher
T5 sequence (Q04771 21-509): T1 sequence (Q04771 21-509)

human kinome = assay: KINOMEscan (Eurofins) binding across the human kinome; settings: tested at a dose of 1 μM
Description: as §3

ACVRL1 [3] = target: T6, ACVRL1 (Homo sapiens, UniProt P37023); assay: Promega NanoBRET live-cell target engagement, ACVRL1; assay type: cell-based; settings: in cellulo; NI = No inhibition at 40 μM
T6 construct: purchased ThermoFisher
T6 sequence (P37023 22-503): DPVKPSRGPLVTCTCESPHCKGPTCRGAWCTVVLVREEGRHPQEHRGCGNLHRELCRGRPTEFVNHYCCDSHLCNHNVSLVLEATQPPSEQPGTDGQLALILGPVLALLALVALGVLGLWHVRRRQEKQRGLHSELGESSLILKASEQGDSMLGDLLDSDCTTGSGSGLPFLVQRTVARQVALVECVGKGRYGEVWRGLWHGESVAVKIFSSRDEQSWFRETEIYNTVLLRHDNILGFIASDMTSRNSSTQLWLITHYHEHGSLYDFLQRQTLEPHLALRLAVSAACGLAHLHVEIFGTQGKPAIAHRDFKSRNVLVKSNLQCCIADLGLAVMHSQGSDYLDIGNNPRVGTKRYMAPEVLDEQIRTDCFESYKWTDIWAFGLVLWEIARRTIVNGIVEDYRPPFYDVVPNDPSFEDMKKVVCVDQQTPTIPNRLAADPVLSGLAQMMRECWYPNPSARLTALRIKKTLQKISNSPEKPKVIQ
Description: The Promega NanoBRET target engagement system involves cell-based competitive displacement of a fluorescent NanoBRET tracer bound reversibly to a NanoLuc fusion protein. Test compounds displace the tracer dependent on their affinity for the target and reduce loss of the NanoBRET signal.
Further, HEK29T cells with stable expression of a BMP reporter element driving luciferase expression can be used to test inhibition of BMP-induced luciferase transactivation. […] Additionally, utilizing the HEPG2 cell system described herein, responsiveness to activin and induction of Hepcidin (HAMP) gene expression can be probed in the presence and absence of ACVR1 inhibitors, as well as the influence of tacrolimus on activin-induced hepcidin gene expression.
Thus, the in cellulo assays described herein comprise a luciferase reporter cell line system.

ACVRL1 [4] = target: T6, ACVRL1; assay: ThermoFisher (Lantha) kinase assay, inhibition of ACVRL1; assay type: biochemical; settings: in vitro, NA = not active at 1 μM
[5] = Metabolic stability in mouse liver microsomes; assay type: in vitro ADME; settings: some cells add hours in brackets
Description: as §2

[6] = test system: pSMAD1/5 in WT fibroblasts (WT GM01652); assay: BMP2-induced pSMAD1/5 Western blot in primary WT fibroblasts; assay type: cell-based, human; settings: 1, 5, 25 μM, 30 min pre-treatment, 5 ng/mL BMP2 45 min
Procedure: (§5) FIG. 11 depicts inhibition of phosphorylated SMAD1/5 (pSMAD1/5) in primary WT and FOP fibroblasts. […] Subsequently, the fibroblasts were treated with vehicle (i.e., DMSO) or 5 ng/mL BMP2 in the presence of the inhibitors for 45 minutes. Cell lysates were then probed with antibodies against pSMAD1/5, total SMAD5, total SMAD1, and GAPDH (i.e., loading control) using a Western blot.

[7] = test system: pSMAD1/5 in FOP fibroblasts (FOP GM00513); assay: BMP2-induced pSMAD1/5 Western blot in primary FOP fibroblasts; assay type: cell-based, human; settings: 1, 5, 25 μM, 30 min pre-treatment, 5 ng/mL BMP2 45 min
Procedure: as §5

[8] = Plasma ALT and AST levels in mice after treatment; assay type: in vivo; settings: 24 h post-administration, individual mice No. 1-4
Description: (§6) The present disclosure further provides exemplary pharmacokinetic data for compound CDD-2789.

[9] = Pharmacokinetic study in mice, oral gavage; settings: mouse, in vivo, 50 mg/kg oral gavage, n = 4, mean ± SD
Description: as §6

HepG2 cells = assay: Cytotoxicity in HepG2 cells (Cell Titer GLO, cellular ATP); assay type: cell-based; settings: 24 hours, concentrations up to 100 μM

COc1cc(-c2nc3ccc(C(=O)NCCCN4CCN(c5cccc(C)c5C)CC4)cc3n2C2CCC2)cc(OC)c1OC [CDD-2342, 1-cyclobutyl-N-(3-(4-(2,3-dimethylphenyl)piperazin-1-yl)propyl)-2-(3,4,5-trimethoxyphenyl)-1H-benzo[d]imidazole-6-carboxamide]
inhibition of BMP2-induced reporter activity ([1]; 1 μM, 5 μM, 10 μM): significantly inhibits
IC50 (ACVR1^WT): 0.83 µM and 0.81 µM
Metabolism HLM [2]: 0.5 min
IC50 (BMPR1B): 0.687 µM
IC50 (BMPR1A): 0.257 µM
IC50 (ACVR1^R206H): 1.47 µM and 1.48 µM
fold better inhibitor of ACVR1 than non-TGFβ family kinases (ACVR1; FIGS. 3A-3B): > 1000 fold
IC50 (ACVR1; ThermoFisher Assay, in vitro): 0.0061 µM
kinase specificity (rank order) (ACVR1; ThermoFisher Lantha kinase screening assay, FIG. 3B): ACVR1>ACVRL1>>BMPR1A>BMPR1B
off-target binding across the human kinome (human kinome): minimal off-target binding
IC50 (ACVRL1 [3]): 11.1 µM and 11.4 µM
IC50 (ACVRL1 [4]): 0.0188 µM
Metabolism MLM [5]: 0 min

COc1cc(-c2nc3ccc(C(=O)NCCCN(C)C)cc3n2C2CCC2)cc(OC)c1OC [CDD-2789, 1-cyclobutyl-N-(3-(dimethylamino)propyl)-2-(3,4,5-trimethoxyphenyl)-1H-benzo[d]imidazole-6-carboxamide]
inhibition of BMP2-induced luciferase activity ([1]; 0.2, 1, 5, 25 μM): Potent inhibition
suppression of BMP2-induced pSMAD1/5 activation, WT fibroblasts [6]: suppressed
Metabolism HLM (Min) [2]: 2767 (46.1 h) Min
suppression of BMP2-induced pSMAD1/5 activation, FOP fibroblasts [7]: suppressed
Plasma ALT [8]: 21.83 IU/L and 165.48 IU/L and 25.81 IU/L and 23.60 IU/L
Plasma AST [8]: 30.76 IU/L and 141.26 IU/L and 42.08 IU/L and 55.52 IU/L
IC50 (ACVRL1 [4]): 0.0099 µM
half-life [9]: ~3.42 h
Metabolism MLM (Min) [5]: 505 (8.4 h) Min
cytotoxicity (cell viability, cellular ATP) (HepG2 cells): no cytotoxicity
